In the supplement of paper PMC10307832:

Tests used:
Assay in all cases: relative viability (nuclei count vs DMSO), 5 days (fraction); higher = more cells survive
[1] = compound: Nc1ccn([C@@H]2O[C@H](CO)[C@@H](O)C2(F)F)c(=O)n1 [Gemcitabine] + N=C(N)NC(=N)NCCc1ccccc1 [Phenformin] (partner 250 µM)
Outline: (§1)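 Lung cancer cell lines in 1536-well plates were dosed by pin tool the day after seeding, either with one drug alone or with a fixed anchor-drug dose plus five library-drug doses (not always all listed) in √10 steps. After 5 days, cells were fixed and their nuclei stained in one step (final 0.05% Triton X-100, 1% formaldehyde, 1 ug/ml Hoechst), then counted on 4× images. Relative viability is the nuclei count in treated wells divided by that in vehicle wells. Values are medians of duplicate plates.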

[2] = compound: Nc1ccn([C@@H]2O[C@H](CO)[C@@H](O)C2(F)F)c(=O)n1 [Gemcitabine] + CS(=O)(=O)N1CCN(Cc2cc3nc(-c4cccc5[nH]ncc45)nc(N4CCOCC4)c3s2)CC1 [Pictilisib] (partner 1 µM)
Outline: as §1

[3] = compound: Nc1ccn([C@@H]2O[C@H](CO)[C@@H](O)C2(F)F)c(=O)n1 [Gemcitabine] + NC(=O)Nc1cc(-c2cccc(F)c2)sc1C(=O)N[C@H]1CCCNC1 [AZD7762] (partner 0.2 µM)
Outline: as §1

[4] = compound: Nc1ccn([C@@H]2O[C@H](CO)[C@@H](O)C2(F)F)c(=O)n1 [Gemcitabine] + Cc1nc(NC(=O)N2CCC[C@H]2C(N)=O)sc1-c1ccnc(C(C)(C)C(F)(F)F)c1 [Alpelisib] (partner 2 µM)
Outline: as §1

Row | Cell Line | relative viability ([1]; first compound 0.001 µM) | relative viability ([1]; first compound 0.003162 µM) | relative viability ([1]; first compound 0.01 µM) | relative viability ([1]; first compound 0.03162 µM) | relative viability ([1]; first compound 0.1 µM) | relative viability ([2]; first compound 0.001 µM) | relative viability ([2]; first compound 0.003162 µM) | relative viability ([2]; first compound 0.01 µM) | relative viability ([2]; first compound 0.03162 µM) | relative viability ([2]; first compound 0.1 µM) | relative viability ([3]; first compound 0.001 µM) | relative viability ([3]; first compound 0.003162 µM) | relative viability ([3]; first compound 0.01 µM) | relative viability ([3]; first compound 0.03162 µM) | relative viability ([3]; first compound 0.1 µM) | relative viability ([4]; first compound 0.001 µM) | relative viability ([4]; first compound 0.003162 µM) | relative viability ([4]; first compound 0.01 µM) | relative viability ([4]; first compound 0.03162 µM) | relative viability ([4]; first compound 0.1 µM)
1 | 201T | 0.43 | 0.455 | 0.427 | 0.334 | 0.263 | 0.692 | 0.71 | 0.686 | 0.496 | 0.321 | 0.59 | 0.584 | 0.237 | 0.225 | 0.233 | 0.939 | 0.97 | 0.943 | 0.396 | 0.331
2 | A-427 | 0.328 | 0.273 | 0.16 | 0.178 | 0.117 | 0.748 | 0.673 | 0.438 | 0.155 | 0.0739 | 0.472 | 0.302 | 0.174 | 0.188 | 0.146 | 1.03 | 0.99 | 0.764 | 0.169 | 0.0914
3 | ABC-1 | 0.197 |  | 0.236 | 0.186 | 0.212 | 0.907 | 0.832 | 0.599 | 0.38 | 0.278 | 0.748 | 0.757 | 0.964 | 0.295 | 0.304 | 0.95 | 0.97 | 0.838 | 0.45 | 0.307
4 | BEN | 0.262 | 0.23 | 0.243 | 0.222 | 0.202 | 0.547 | 0.477 | 0.258 | 0.128 | 0.119 | 0.441 | 0.252 | 0.184 | 0.184 | 0.253 | 1.09 | 0.659 | 0.253 | 0.117 | 0.0816
5 | CAL-12T | 0.587 | 0.335 | 0.437 | 0.226 | 0.122 | 0.289 | 0.393 | 0.359 | 0.267 | 0.242 | 0.624 | 0.548 | 0.227 | 0.206 | 0.23 | 1.6 | 0.917 | 0.84 | 0.285 | 0.164
6 | COR-L23 | 0.432 | 0.368 | 0.193 | 0.1 | 0.0829 | 0.686 | 0.942 | 0.39 | 0.148 | 0.0795 |  |  |  |  |  | 0.763 | 0.634 | 0.229 | 0.118 | 0.0742
7 | COR-L 105 | 0.563 | 0.48 | 0.308 | 0.271 | 0.203 | 0.43 | 0.377 | 0.364 | 0.27 | 0.269 |  |  |  |  |  | 1.22 | 0.95 | 0.526 | 0.261 | 0.21
8 | Calu-6 |  |  |  |  |  | 0.994 | 0.705 | 0.223 | 0.162 | 0.108 |  |  |  |  |  | 1.02 | 0.415 | 0.224 | 0.13 | 0.12
9 | ChaGo-K-1 | 0.444 | 0.378 | 0.204 | 0.17 | 0.159 | 0.664 | 0.388 | 0.363 | 0.198 | 0.239 | 0.819 | 0.47 | 0.186 | 0.141 | 0.153 |  |  |  |  | 
10 | EBC-1 |  |  |  |  |  | 0.355 | 0.237 | 0.15 | 0.151 | 0.143 |  |  |  |  |  | 0.589 | 0.21 | 0.168 | 0.187 | 0.165
11 | EKVX | 0.233 | 0.194 | 0.119 | 0.132 | 0.109 | 0.424 | 0.336 | 0.226 | 0.153 | 0.108 | 0.49 | 0.466 | 0.142 | 0.147 | 0.139 | 0.93 | 0.77 | 0.454 | 0.147 | 0.132
12 | EMC-BAC-2 | 0.566 | 0.525 | 0.425 | 0.205 | 0.204 | 0.615 | 0.58 | 0.402 | 0.196 | 0.184 | 1.18 | 0.723 | 0.224 | 0.301 | 0.232 | 0.726 | 0.768 | 0.627 | 0.12 | 0.0893
13 | EPLC-272H | 0.348 | 0.324 | 0.174 | 0.158 | 0.0709 | 0.286 | 0.115 | 0.304 | 0.232 | 0.143 | 0.19 | 0.141 | 0.0918 | 0.101 | 0.0686 | 1.04 | 0.809 | 0.541 | 0.304 | 0.1
14 | H3255 | 0.352 | 0.266 | 0.31 | 0.368 | 0.302 | 0.524 | 0.299 | 0.334 | 0.194 | 0.137 | 1 | 0.604 | 0.37 | 0.203 | 0.248 | 0.8 | 0.403 | 0.472 | 0.185 | 0.168
15 | HARA | 0.498 | 0.556 | 0.445 | 0.222 | 0.0544 | 0.299 | 0.483 | 0.532 | 0.261 | 0.0888 | 0.328 | 0.241 | 0.131 | 0.132 | 0.117 | 0.827 | 0.808 | 0.682 | 0.233 | 0.0894
16 | HCC-15 | 0.47 | 0.492 | 0.331 | 0.144 | 0.0968 | 0.763 | 0.804 | 0.762 | 0.323 | 0.0914 | 1.03 | 1.21 | 1.18 | 0.129 | 0.113 | 1.01 | 0.893 | 0.766 | 0.145 | 0.0627
17 | HCC-44 | 0.156 | 0.139 | 0.101 | 0.098 | 0.102 | 0.58 | 0.568 | 0.593 | 0.392 | 0.234 | 0.971 | 1.03 | 0.942 | 0.226 | 0.271 | 0.808 | 0.791 | 0.636 | 0.238 | 0.122
18 | HCC-78 | 0.581 | 0.538 | 0.285 | 0.209 | 0.233 | 0.198 | 0.247 | 0.201 | 0.148 | 0.132 | 0.477 | 0.303 | 0.186 | 0.214 | 0.277 | 0.278 | 0.241 | 0.12 | 0.157 | 0.13
